Source: patent US8846699B2, “Quinazoline derivatives as a multiplex inhibitor and method for the preparation thereof” (Hanmi Pharm. Co., Ltd., priority 2005, dated 2014)

Key:
[1] = system: Human Umbilical Vein Endothelial Cell (HUVEC); assay: Inhibitory effect on growth of human umbilical vein endothelial cell (HUVEC), MTS; type: cell-based; details: 10 ng/ml VEGF, absorbance 490 nm
VEGFR2 (KDR) = VEGFR2 (KDR) (Homo sapiens (Human), UniProt P35968); assay: VEGFR2 (KDR) enzyme assay, fluorescence polarization; type: biochemical; details: 5 μM ATP, poly(Glu, Tyr) substrate
Procedure, shortened: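 Buffer: 20 mM HEPES pH 7.4 with 5 mM MgCl2, 2 mM MnCl2 and 50 μM Na3VO4. Compound (0.0001–10 μM) was premixed 10 min with VEGFR2 (200 ng/10 μl), then poly(Glu,Tyr) substrate (10 ng/ml) and 5 μM ATP were added for 1 h at room temperature. EDTA-quenched samples were read by FP after 30 min with antibody and tracer.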

EGFR1 (HER-1) = EGFR1 (HER-1) (Homo sapiens (Human), UniProt P00533); assay: EGFR1 (HER-1) enzyme assay, fluorescence polarization; type: biochemical; details: 100 μM ATP, poly(Glu, Tyr) substrate
[2] = system: skin cancer cell line, A431; assay: Inhibitory effect on growth of cancer cell line A431, SRB; type: cell-based; details: overexpressed EGFR1 (HER-1)
Procedure, shortened: (§1)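 Growth inhibition was measured by sulforhodamine-B staining (absorbance 570 nm) of TCA-fixed cells after 72 h compound exposure at 37 °C, 5% CO2. Test concentrations ran from 10 μM in 10-fold steps to 10^−4, with DMSO below 1%, in 10% FBS DMEM.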

[3] = system: breast cancer cell line, SK-Br3; assay: Inhibitory effect on growth of cancer cell line SK-Br3, SRB; type: cell-based; details: overexpressed EGFR2 (HER-2)
Procedure, shortened: as §1

[4] = system: colon and rectal cancer cell line, SW-620; assay: Inhibitory effect on growth of cancer cell line SW-620, SRB; type: cell-based; details: not having overexpressed EGFR and EGFR2
Procedure, shortened: as §1

Chain of EGFR1 (HER-1) (P00533 25-1210): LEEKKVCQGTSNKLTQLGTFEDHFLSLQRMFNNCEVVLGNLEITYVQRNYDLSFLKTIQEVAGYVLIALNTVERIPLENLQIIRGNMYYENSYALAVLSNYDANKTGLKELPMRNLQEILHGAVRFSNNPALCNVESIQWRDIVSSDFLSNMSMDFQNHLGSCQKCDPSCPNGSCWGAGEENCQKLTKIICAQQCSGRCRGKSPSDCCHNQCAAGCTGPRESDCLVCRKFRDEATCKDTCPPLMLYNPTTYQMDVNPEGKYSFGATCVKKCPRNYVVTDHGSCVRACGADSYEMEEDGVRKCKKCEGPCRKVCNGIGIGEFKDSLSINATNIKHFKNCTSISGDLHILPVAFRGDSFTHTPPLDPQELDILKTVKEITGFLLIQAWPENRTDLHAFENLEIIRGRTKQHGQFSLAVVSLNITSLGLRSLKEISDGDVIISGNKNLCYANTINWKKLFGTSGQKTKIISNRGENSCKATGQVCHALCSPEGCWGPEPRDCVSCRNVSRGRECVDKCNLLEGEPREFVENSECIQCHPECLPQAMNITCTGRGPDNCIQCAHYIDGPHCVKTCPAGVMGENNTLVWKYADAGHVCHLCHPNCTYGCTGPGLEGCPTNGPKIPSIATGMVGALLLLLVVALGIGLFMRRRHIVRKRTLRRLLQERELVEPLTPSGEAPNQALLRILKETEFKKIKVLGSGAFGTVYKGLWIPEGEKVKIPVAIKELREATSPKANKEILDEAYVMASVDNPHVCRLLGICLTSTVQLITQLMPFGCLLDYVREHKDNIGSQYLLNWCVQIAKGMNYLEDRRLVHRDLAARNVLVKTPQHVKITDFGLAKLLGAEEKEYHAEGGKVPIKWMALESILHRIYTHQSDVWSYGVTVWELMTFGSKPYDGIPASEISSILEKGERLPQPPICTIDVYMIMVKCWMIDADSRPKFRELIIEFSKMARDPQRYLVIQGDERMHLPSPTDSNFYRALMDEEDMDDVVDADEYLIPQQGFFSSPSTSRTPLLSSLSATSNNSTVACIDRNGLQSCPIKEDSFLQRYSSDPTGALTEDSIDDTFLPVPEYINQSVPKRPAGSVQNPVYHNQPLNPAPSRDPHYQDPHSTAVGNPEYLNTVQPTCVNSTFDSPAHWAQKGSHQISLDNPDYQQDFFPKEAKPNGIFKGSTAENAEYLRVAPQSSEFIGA
Chain of VEGFR2 (KDR) (P35968 20-1356): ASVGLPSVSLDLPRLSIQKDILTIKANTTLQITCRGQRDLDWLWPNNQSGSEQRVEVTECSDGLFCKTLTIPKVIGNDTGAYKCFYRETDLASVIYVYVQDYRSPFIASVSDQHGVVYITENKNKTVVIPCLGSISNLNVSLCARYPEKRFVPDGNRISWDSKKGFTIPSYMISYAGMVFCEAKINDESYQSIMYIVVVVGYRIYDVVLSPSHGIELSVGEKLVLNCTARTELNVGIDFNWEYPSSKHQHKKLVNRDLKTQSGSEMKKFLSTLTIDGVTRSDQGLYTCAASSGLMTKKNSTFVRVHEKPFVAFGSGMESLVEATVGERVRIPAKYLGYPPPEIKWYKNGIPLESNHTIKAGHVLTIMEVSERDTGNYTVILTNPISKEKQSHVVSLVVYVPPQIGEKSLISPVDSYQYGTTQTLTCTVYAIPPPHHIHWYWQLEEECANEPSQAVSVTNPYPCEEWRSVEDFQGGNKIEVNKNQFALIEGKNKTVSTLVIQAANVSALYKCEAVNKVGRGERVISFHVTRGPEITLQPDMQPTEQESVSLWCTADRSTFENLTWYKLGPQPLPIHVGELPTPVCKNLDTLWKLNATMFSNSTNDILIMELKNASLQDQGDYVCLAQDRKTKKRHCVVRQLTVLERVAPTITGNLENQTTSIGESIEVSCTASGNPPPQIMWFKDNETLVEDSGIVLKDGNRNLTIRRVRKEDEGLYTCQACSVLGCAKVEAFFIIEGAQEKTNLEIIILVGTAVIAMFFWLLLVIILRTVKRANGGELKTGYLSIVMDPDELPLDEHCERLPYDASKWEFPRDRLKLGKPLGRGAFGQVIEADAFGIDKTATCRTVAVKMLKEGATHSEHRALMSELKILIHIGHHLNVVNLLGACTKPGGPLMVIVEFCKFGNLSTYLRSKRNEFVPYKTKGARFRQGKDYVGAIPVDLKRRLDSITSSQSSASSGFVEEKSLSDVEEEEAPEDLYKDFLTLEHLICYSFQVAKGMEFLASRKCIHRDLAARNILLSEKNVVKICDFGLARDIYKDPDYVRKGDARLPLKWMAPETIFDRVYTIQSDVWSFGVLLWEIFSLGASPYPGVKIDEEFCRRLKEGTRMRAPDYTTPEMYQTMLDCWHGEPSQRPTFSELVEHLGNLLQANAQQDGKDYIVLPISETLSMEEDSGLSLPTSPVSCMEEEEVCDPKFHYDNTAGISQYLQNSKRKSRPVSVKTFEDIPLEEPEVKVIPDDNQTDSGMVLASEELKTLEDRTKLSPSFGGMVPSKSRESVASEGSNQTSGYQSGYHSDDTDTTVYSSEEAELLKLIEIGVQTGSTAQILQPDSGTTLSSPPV

Row | SMILES | IC50 (VEGFR2 (KDR)) | IC50 (EGFR1 (HER-1)) | IC50 ([2]; Homo sapiens, A-431, 72 h) | IC50 ([3]; Homo sapiens, SK-BR-3, 72 h) | IC50 ([4]; Homo sapiens, 72 h) | IC50 ([1]; Homo sapiens, 96 h) | IC50 ([1]; 96 hours) | IC50 ([2]; 72 hours) | IC50 ([3]; 72 hours) | IC50 ([4]; 72 hours)
1 | C=CC(=O)Nc1cc2c(Nc3ccc(OCc4cccnc4)c(Cl)c3)ncnc2cc1OCCNC(C)=O [Example 130, N-{7-(2-acetylamino-ethoxy)-4-[3-chloro-4-(pyridin-3-ylmethoxy)-phenylamino]-quinazolin-6-yl}-acrylamide] | 853 nM | 796 nM | 789 nM | 987 nM | 5530 nM | 964 nM | – | – | – | –
2 | C=CC(=O)Nc1cc2c(Nc3ccc(Br)c(Cl)c3F)ncnc2cc1OCCNC(=O)NC(C)(C)C [Example 54, N-{4-(4-bromo-3-chloro-2-fluoro-phenylamino)-7-[2-(3-t-butyl-ureido)-ethoxy]-quinazolin-6-yl}-acrylamide] | 423 nM | 45 nM | 59 nM | 456 nM | 10000 nM | 568 nM | – | – | – | –
3 | C=CC(=O)Nc1cc2c(Nc3cc(Cl)c(Cl)cc3F)ncnc2cc1OCCNC(=O)CC [Example 137, N-[4-(4,5-dichloro-2-fluoro-phenylamino)-7-(2-propionylamino-ethoxy)-quinazolin-6-yl]-acrylamide] | 954 nM | 4 nM | 5 nM | 40 nM | 9580 nM | 951 nM | – | – | – | –
4 | C=CC(=O)Nc1cc2c(Nc3ccc(Br)c(Cl)c3F)ncnc2cc1OC[C@@H](C)NC(=O)CN(C)C [Example 164, (R)—N-4-(4-bromo-3-chloro-2-fluoro-phenylamino)-7-[2-(2-dimethylamino-acetylamino)-propoxy]-quinazolin-6-yl-acrylamide] | 713 nM | 14 nM | – | – | – | – | 754 nM | 19 nM | 36 nM | 8970 nM

Further lines, with some results ahead:

Row | IC50 (VEGFR2 (KDR)) | IC50 (EGFR1 (HER-1)) | IC50 ([2]; Homo sapiens, A-431, 72 h) | IC50 ([3]; Homo sapiens, SK-BR-3, 72 h) | IC50 ([4]; Homo sapiens, 72 h) | SMILES | IC50 ([1]; Homo sapiens, 96 h) | IC50 ([1]; 96 hours) | IC50 ([2]; 72 hours) | IC50 ([3]; 72 hours) | IC50 ([4]; 72 hours)
5 | 951 nM | 987 nM | 1020 nM | 1360 nM | 4590 nM | C=CC(=O)Nc1cc2c(Nc3ccc(Br)cc3F)ncnc2cc1OCCNC(=O)CN1CCC1 [Example 110, N-[7-[2-(2-azetidin-1-yl-acetylamino)-ethoxy]-4-(4-bromo-2-fluoro-phenylamino)-quinazolin-6-yl]-acrylamide] | 956 nM | – | – | – | –
6 | 235 nM | 89 nM | 91 nM | 781 nM | 9570 nM | C=CC(=O)Nc1cc2c(Nc3ccc(Br)cc3F)ncnc2cc1OCCNC(=O)CN [Example 57, N-[7-[2-(2-amino-acetylamino)-ethoxy]-4-(4-bromo-2-fluoro-phenylamino)-quinazolin-6-yl]-acrylamide] | 379 nM | – | – | – | –
7 | 523 nM | 5 nM | 45 nM | 92 nM | 9780 nM | C=CC(=O)Nc1cc2c(Nc3ccc(Br)cc3F)ncnc2cc1OCCNC(=O)C(F)F [Example 22, N-{4-(4-bromo-2-fluoro-phenylamino)-7-[2-(2,2-difluoro-acetylamino)-ethoxy]-quinazolin-6-yl}-acrylamide] | 961 nM | – | – | – | –
8 | 136 nM | 18 nM | 19 nM | 60 nM | 2680 nM | C=CC(=O)Nc1cc2c(Nc3ccc(Br)c(F)c3F)ncnc2cc1OCCNC(=O)CN(C)C [Example 124, N-{4-(4-bromo-2,3-difluoro-phenylamino)-7-[2-(2-dimethylamino-acetylamino)-ethoxy]-quinazolin-6-yl}-acrylamide] | 268 nM | – | – | – | –
9 | 197 nM | 36 nM | 46 nM | 53 nM | 10000 nM | C=CC(=O)Nc1cc2c(Nc3ccc(Br)cc3F)ncnc2cc1OCCNC(=O)N1CCOCC1 [Example 93, morpholine-4-carboxylic acid {2-[6-acryloylamino-4-(4-bromo-2-fluoro-phenylamino)-quinazolin-7-yloxy]-ethyl}-amide] | 269 nM | – | – | – | –
